Laboratory results from patent publication US10294202B2, “Pyrrolidinones as herbicides” (FMC Corporation, priority 2013, dated 2019).
Read-outs that look alike come from different tables or passages of the source.

Columns and labels:
[1] = tested on: barnyardgrass; experiment: Test A pre-/postemergence herbicide test; type: in vivo, Echinochloa crus-galli; details: for Barnyardgrass plant response rating: visual rating on 0 to 100 scale (0 no effect, 100 complete control); for pest or weed control at 125 g/ha / pest or weed control at 500 g/ha: Echinochloa crus-galli, 240 h, read-out: Plant response rating, Barnyardgrass
Method in brief: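 Seeds in loam–sand blend received preemergence directed soil spray; separately, plants 2–10 cm at one- to two-leaf stage received postemergence spray, both with test chemicals in non-phytotoxic solvent with surfactant. After ~10 days in greenhouse, injury rated visually against untreated controls, 0 (no effect) to 100 (complete control).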

[2] = tested on: crabgrass, large; experiment: Test C pre-/postemergence herbicide test; type: in vivo, Digitaria sanguinalis; details: Preemergence; for Plant response rating (scale of 0 to 100), Crabgrass, Large: 250 g ai/ha
Source text: (§1) Seeds of plant species selected from blackgrass (Alopecurus myosuroides), ryegrass, Italian (Italian ryegrass, Lolium multiflorum), wheat (winter wheat, Triticum aestivum), galium (catchweed bedstraw, Galium aparine), corn (Zea mays), crabgrass, large (large crabgrass, Digitaria sanguinalis), foxtail, giant (giant foxtail, Setaria faberii), johnsongrass (Sorghum halepense), lambsquarters (Chenopodium album), morningglory (Ipomoea coccinea), nutsedge, yellow (yellow nutsedge, Cyperus esculentus), pigweed (Amaranthus retroflexus), ragweed (common ragweed, Ambrosia elatior), soybean (Glycine max), barnyardgrass (Echinochloa crus-galli), oilseed rape (Brassica napus), waterhemp (common waterhemp, Amaranthus rudis), kochia (Kochia scoparia), oat, wild (wild oat, Avena fatua), surinam grass (Brachiaria decumbens), foxtail, green (green foxtail, Setaria viridis), goosegrass (Eleusine indica), bromegrass, downy (downy bromegrass, Bromus tectorum), nightshade (eastern black nightshade, Solanum ptycanthum), cocklebur (common cocklebur, Xanthium strumarium), cupgrass, woolly (woolly cupgrass, Eriochloa villosa), bermudagrass (Cynodon dactylon), sunflower, (common oilseed sunflower, Helianthus annuus), Russian thistle (Salsola kali) and velvetleaf (Abutilon theophrasti) were planted into a blend of loam soil and sand and treated preemergence with test chemicals formulated in a non-phytotoxic solvent mixture which included a surfactant. At the same time, plants selected from these crop and weed species and also barley (winter barley, Hordeum vulgare), […]), chickweed (common chickweed, Stellaria media), deadnettle (henbit deadnettle, Lamium amplexicaule), and canarygrass (littleseed canarygrass, Phalaris minor) were planted in pots containing Redi-Earth® planting medium (Scotts Company, 14111 Scottslawn Road, Marysville, Ohio 43041) comprising spaghnum peat moss, vermiculite, wetting agent and starter nutrients and treated with postemergence applications of test chemicals formulated in the same manner. Plants ranged in height from 2 to 18 cm (1- to 4-leaf stage) for postemergence treatments. Treated plants and controls were maintained in a greenhouse for 13 to 15 days, after which time all species were compared to controls and visually evaluated. Plant response ratings, summarized in Table C, are based on a scale of 0 to 100 where 0 is no effect and 100 is complete control. A dash (-) response means no test result.

[3] = tested on: soybean; experiment: Test C pre-/postemergence herbicide test; type: in vivo, Glycine max; details: Preemergence; for Plant response rating (scale of 0 to 100), Soybean: 250 g ai/ha
Source text: as §1

[4] = tested on: blackgrass; experiment: Test C pre-/postemergence herbicide test; type: in vivo, Alopecurus myosuroides; details: Preemergence; for Plant response rating (scale of 0 to 100), Blackgrass: 250 g ai/ha
Source text: as §1

[5] = tested on: wheat (winter wheat); experiment: Test C pre-/postemergence herbicide test; type: in vivo, Triticum aestivum; details: Preemergence; for Plant response rating (scale of 0 to 100), Wheat: 250 g ai/ha
Source text: as §1

[6] = tested on: barnyardgrass; experiment: Test C pre-/postemergence herbicide test; type: in vivo, Echinochloa crus-galli; details: Preemergence; for Plant response rating (scale of 0 to 100; 0 is no effect, 100 is complete control), Barnyardgrass: 250 g ai/ha
Source text: as §1

[7] = tested on: pigweed; experiment: Test C pre-/postemergence herbicide test; type: in vivo, Amaranthus retroflexus; details: Preemergence; for Plant response rating (scale of 0 to 100), Pigweed: 250 g ai/ha
Source text: as §1

[8] = tested on: foxtail, giant; experiment: Test C pre-/postemergence herbicide test; type: in vivo, Setaria faberii; details: Preemergence; for Plant response rating (scale of 0 to 100), Foxtail, Giant: 250 g ai/ha
Source text: as §1

[9] = tested on: velvetleaf; experiment: Test C pre-/postemergence herbicide test; type: in vivo, Abutilon theophrasti; details: Preemergence; for Plant response rating (scale of 0 to 100), Velvetleaf: 250 g ai/ha
Source text: as §1

[10] = tested on: galium; experiment: Test C pre-/postemergence herbicide test; type: in vivo, Galium aparine; details: Preemergence; for Plant response rating (scale of 0 to 100), Galium: 250 g ai/ha
Source text: as §1

[11] = tested on: oilseed rape; experiment: Test C pre-/postemergence herbicide test; type: in vivo, Brassica napus; details: Preemergence; for Plant response rating (scale of 0 to 100), Oilseed Rape: 250 g ai/ha
Source text: as §1

[12] = Postemergence, 125 g ai/ha, 0 to 100 scale, 0 no effect, 100 complete control
[13] = Postemergence, 500 g ai/ha, 0 to 100 scale (0 no effect, 100 complete control)
[14] = preemergence, 500 g ai/ha, 0 to 100 scale (0 no effect, 100 complete control)
[15] = 31 g ai/ha, scale 0 to 100, 0 is no effect and 100 is complete control
[16] = 125 g ai/ha, scale 0 to 100 (0 no effect, 100 complete control)
[17] = Postemergence, 125 g ai/ha, 0 to 100 scale, 0 is no effect, 100 is complete control
[18] = preemergence, 500 g ai/ha, 0 to 100 scale, 0 is no effect and 100 is complete control
[19] = 62 g ai/ha, scale 0 to 100 (0 no effect, 100 complete control)
[20] = post-emergence, Postemergence, 125 g ai/ha, 0 to 100 scale, 0 no effect, 100 complete control
[21] = post-emergence, Postemergence, 500 g ai/ha, 0 to 100 scale (0 no effect, 100 complete control)
[22] = pre-emergence, preemergence, 500 g ai/ha, 0 to 100 scale (0 no effect, 100 complete control)

SMILES: O=C1NCC(c2ccc(F)c(F)c2)C1C(=O)Nc1ccccc1C(F)(F)F (racemic) [Compound 6]
- Plant response rating, Barnyardgrass [1, 12]: 40
- Plant response rating, Barnyardgrass [1, 13]: 80
- Barnyardgrass plant response rating ([1]; Preemergence, 125 g ai/ha): 50
- Plant response rating, Barnyardgrass [1, 14]: 80

SMILES: O=C1NCC(c2ccc(F)c(C(F)(F)F)c2)C1C(=O)Nc1cccc(F)c1F (racemic) [Compound 77]
- Crabgrass, Large plant response rating [2, 15]: 95
- Plant response rating, Crabgrass, Large ([2]; 62 g ai/ha, scale 0 to 100): 95
- Plant response rating, Crabgrass, Large [2, 16]: 98
- Plant response rating (scale of 0 to 100), Crabgrass, Large [2]: 98
- Soybean plant response rating [3, 15]: 0
- Plant response rating, Soybean ([3]; 62 g ai/ha, scale 0 to 100): 0
- Plant response rating, Soybean [3, 16]: 0
- Plant response rating (scale of 0 to 100), Soybean [3]: 0
- Blackgrass plant response rating [4, 15]: 85
- Plant response rating, Blackgrass ([4]; 62 g ai/ha, scale 0 to 100): 85
- Plant response rating, Blackgrass [4, 16]: 85
- Plant response rating (scale of 0 to 100), Blackgrass [4]: 95
- Wheat plant response rating [5, 15]: 0
- Plant response rating, Wheat ([5]; 62 g ai/ha, scale 0 to 100): 55
- Plant response rating, Wheat [5, 16]: 80
- Plant response rating (scale of 0 to 100), Wheat [5]: 90
- Barnyardgrass plant response rating [6, 15]: 90
- Plant response rating, Barnyardgrass ([6]; 62 g ai/ha, scale 0 to 100): 95
- Plant response rating, Barnyardgrass [6, 16]: 95
- Plant response rating (scale of 0 to 100; 0 is no effect, 100 is complete control), Barnyardgrass [6]: 95
- Pigweed plant response rating [7, 15]: 0
- Plant response rating, Pigweed ([7]; 62 g ai/ha, scale 0 to 100): 60
- Plant response rating, Pigweed [7, 16]: 60
- Plant response rating (scale of 0 to 100), Pigweed [7]: 85
- Foxtail, Giant plant response rating [8, 15]: 90
- Plant response rating, Foxtail, Giant ([8]; 62 g ai/ha, scale 0 to 100): 90
- Plant response rating, Foxtail, Giant [8, 16]: 95
- Plant response rating (scale of 0 to 100), Foxtail, Giant [8]: 100
- Velvetleaf plant response rating [9, 15]: 0
- Plant response rating, Velvetleaf ([9]; 62 g ai/ha, scale 0 to 100): 25
- Plant response rating, Velvetleaf [9, 16]: 30
- Plant response rating (scale of 0 to 100), Velvetleaf [9]: 40
- Plant response rating, Galium ([10]; 62 g ai/ha, scale 0 to 100): 5
- Plant response rating, Galium [10, 16]: 80
- Plant response rating (scale of 0 to 100), Galium [10]: 90
- Plant response rating, Barnyardgrass [1, 12]: 70
- Plant response rating, Barnyardgrass [1, 13]: 80
- Barnyardgrass plant response rating ([1]; Preemergence, 125 g ai/ha): 80
- Plant response rating, Barnyardgrass [1, 14]: 90
- Oilseed Rape plant response rating [11, 15]: 0
- Plant response rating, Oilseed Rape ([11]; 62 g ai/ha, scale 0 to 100): 30
- Plant response rating, Oilseed Rape [11, 16]: 60
- Plant response rating (scale of 0 to 100), Oilseed Rape [11]: 85

SMILES: O=C1NCC(c2cccc(C(F)F)c2)C1C(=O)Nc1ccccc1F (racemic) [Compound 210]
- Plant response rating, Barnyardgrass ([1]; 125 g ai/ha, visual rating, 0 to 100 scale, 0 no effect, 100 complete control, approximately 10 days, preemergence): 60
- Plant response rating, Barnyardgrass [1, 17]: 80
- Barnyardgrass plant response rating (0 to 100 scale, 0 is no effect, 100 is complete control) ([1]; Postemergence, 500 g ai/ha): 90
- Plant response rating, Barnyardgrass [1, 18]: 90

SMILES: O=C1NCC(c2cc(F)cc(F)c2)C1C(=O)Nc1ccccc1Cl (racemic) [Compound 280]
- Crabgrass, Large plant response rating [2, 15]: 85
- Crabgrass, Large plant response rating [2, 19]: 90
- Plant response rating, Crabgrass, Large [2, 16]: 95
- Plant response rating (scale of 0 to 100), Crabgrass, Large [2]: 100
- Soybean plant response rating [3, 15]: 0
- Soybean plant response rating [3, 19]: 5
- Plant response rating, Soybean [3, 16]: 0
- Plant response rating (scale of 0 to 100), Soybean [3]: 0
- Blackgrass plant response rating [4, 15]: 0
- Blackgrass plant response rating [4, 19]: 0
- Plant response rating, Blackgrass [4, 16]: 0
- Plant response rating (scale of 0 to 100), Blackgrass [4]: 0
- Wheat plant response rating [5, 15]: 0
- Wheat plant response rating [5, 19]: 0
- Plant response rating (scale of 0 to 100), Wheat [5]: 0
- Barnyardgrass plant response rating [6, 15]: 55
- Barnyardgrass plant response rating [6, 19]: 65
- Plant response rating, Barnyardgrass [6, 16]: 85
- Plant response rating (scale of 0 to 100; 0 is no effect, 100 is complete control), Barnyardgrass [6]: 95
- Pigweed plant response rating [7, 15]: 10
- Pigweed plant response rating [7, 19]: 0
- Plant response rating, Pigweed [7, 16]: 20
- Plant response rating (scale of 0 to 100), Pigweed [7]: 20
- Foxtail, Giant plant response rating [8, 15]: 70
- Foxtail, Giant plant response rating [8, 19]: 80
- Plant response rating, Foxtail, Giant [8, 16]: 90
- Plant response rating (scale of 0 to 100), Foxtail, Giant [8]: 95
- Velvetleaf plant response rating [9, 15]: 0
- Velvetleaf plant response rating [9, 19]: 0
- Plant response rating, Velvetleaf [9, 16]: 0
- Plant response rating (scale of 0 to 100), Velvetleaf [9]: 10
- Galium plant response rating [10, 15]: 0
- Galium plant response rating [10, 19]: 0
- Plant response rating, Galium [10, 16]: 0
- Plant response rating (scale of 0 to 100), Galium [10]: 85
- Plant response rating, Barnyardgrass [1, 17]: 80
- Plant response rating, Barnyardgrass [1, 13]: 90
- Plant response rating, Barnyardgrass ([1]; Preemergence, 125 g ai/ha, 0 to 100 scale where 0 is no effect and 100 is complete control): 80
- Plant response rating, Barnyardgrass [1, 18]: 80
- Oilseed Rape plant response rating [11, 15]: 0
- Oilseed Rape plant response rating [11, 19]: 30
- Plant response rating, Oilseed Rape [11, 16]: 0
- Plant response rating (scale of 0 to 100), Oilseed Rape [11]: 0

SMILES: O=C1NCC(Br)(c2ccccc2)C1C(=O)Nc1ccccc1F (stereo not drawn) [Compound 92, 4-bromo-N-(2-fluorophenyl)-2-oxo-4-phenyl-3-pyrrolidinecarboxamide]
- pest or weed control at 125 g/ha [1, 20]: 20%
- pest or weed control at 500 g/ha [1, 21]: 70%
- pest or weed control at 500 g/ha [1, 22]: 90%
- Barnyardgrass plant response rating ([1]; Preemergence, 125 g ai/ha): 60

SMILES: O=C1NCC(c2ccccc2)C1(Br)C(=O)Nc1ccccc1F (stereo not drawn) [Compound 93, 3-bromo-N-(2-fluorophenyl)-2-oxo-4-phenyl-3-pyrrolidinecarboxamide]
- pest or weed control at 125 g/ha [1, 20]: 10%
- pest or weed control at 500 g/ha [1, 21]: 60%
- pest or weed control at 500 g/ha [1, 22]: 90%
- Barnyardgrass plant response rating ([1]; Preemergence, 125 g ai/ha): 50
